# Values quoted from earlier work, collected in US6355457B1, “Genes for the biosynthesis of epothilones” (Novartis AG, priority 1998, dated 2002).
# System: human solid tumors
# Details: in vivo
row,SMILES,activity against human solid tumors
1,CC(=O)O[C@H]1C(=O)[C@@]2(C)[C@H]([C@H](OC(=O)c3ccccc3)[C@]3(O)C[C@H](OC(=O)[C@H](O)[C@@H](NC(=O)c4ccccc4)c4ccccc4)C(C)=C1C3(C)C)[C@]1(OC(C)=O)CO[C@@H]1C[C@@H]2O [Taxol],significant activity against various human solid tumors
2,CC(=O)O[C@@]12CO[C@@H]1C[C@H](O)[C@@]1(C)C(=O)[C@H](O)C3=C(C)[C@@H](OC(=O)[C@H](O)[C@@H](NC(=O)OC(C)(C)C)c4ccccc4)C[C@@](O)([C@@H](OC(=O)c4ccccc4)[C@H]21)C3(C)C [taxotere],significant activity against various human solid tumors
